# According to patent US20180333382A1, “PHARMACEUTICAL COMPOSITIONS COMPRISING DGLA AND USE OF SAME” (DS Biopharma Limited, priority 2017, published 2018):
# Entries after “also recorded” stand apart in the source; their conditions may differ. Marks after values point to notes of the source that are not given here.
# System: patients with moderate to severe atopic dermatitis having normal eosinophil levels
# Assay: Post hoc stratification of the phase II study by eosinophil level (normal <0.3×10^9/L)
# Format: in vivo, human
# Details: for Percentage Change of BSA Levels From Baseline, Mean / Percentage Change of DLQI Scores From Baseline, Mean / Percentage Change of EASI Scores From Baseline, Mean / Percentage Change of IGA Scores From Baseline, Mean / Percentage Change of POEM Scores From Baseline, Mean / Percentage Change of SCORAD Levels From Baseline, Mean / Percentage Change of VAS Scores From Baseline, Mean: Normal Eosinophil Population
# Procedure: Further to the randomized, double-blind, placebo-controlled, phase II study of Example 2 above, a post hoc stratification analysis was performed using the results of that study to assess the efficacy of orally administered DS107G (DGLA) to patients with moderate to severe atopic dermatitis having normal eosinophil levels of less than about 0.3×10^9/L compared to the same population receiving placebo and/or to the total study population. The primary objective of the post hoc stratification study was to compare the efficacy of orally administered DS107G capsules, versus placebo, in the treatment of adult patients with moderate to severe atopic dermatitis having normal eosinophil levels of less than about 0.3×10^9/L. The secondary objective was to compare the efficacy of orally administered DS107G capsules in the treatment of adult patients with moderate to severe atopic dermatitis having normal eosinophil levels of less than about 0.3×10^9/L versus the total study population. Unless stated otherwise, all elements of the post hoc stratification analysis were the same as those of the phase II study described in Example 2 above.
# [1] = Normal Eosinophil < 0.3 × 10^9/L, daily, 8 weeks
# [2] = Normal Eosinophil < 0.3 × 10^9/L, daily, 8 weeks, LOCF
# [3] = normal eosinophil levels, weeks 2, 4, 6, 8 and 10, vs placebo or total study population
# [4] = patients having normal eosinophil levels
# [5] = study population having normal eosinophil levels, oral, once daily, 8 weeks
structure (smiles),measurement,setting,value
"CCCCC/C=C\C/C=C\C/C=C\CCCCCCC(=O)O [DS107G, Dihomo gamma linolenic acid]",EASI-50 (%),[1],60%
same,EASI-75 (%),[1],40%
same,BSA Change from Baseline,[2],−41% *
same,EASI Percentage Change from Baseline,[2],−51% *
same,IGA responder (%),[2],42% *
same,Pruritus Percentage Change from Baseline,[2],−53% *
same,"Percentage Change of BSA Levels From Baseline, Mean",Week 2,−10.8%
same,"Percentage Change of DLQI Scores From Baseline, Mean",Week 2,−41.3%
same,"Percentage Change of EASI Scores From Baseline, Mean",Week 2,−20.7%
same,"Percentage Change of IGA Scores From Baseline, Mean",Week 2,−15.1%
same,"Percentage Change of POEM Scores From Baseline, Mean",Week 2,−41.8%
same,"Percentage Change of SCORAD Levels From Baseline, Mean",Week 2,−16.5%
same,"Percentage Change of VAS Scores From Baseline, Mean",Week 2,−29.8%
same,"Percentage Change of BSA Levels From Baseline, Mean",Week 4,−21.2%
same,"Percentage Change of DLQI Scores From Baseline, Mean",Week 4,−58.2%
same,"Percentage Change of EASI Scores From Baseline, Mean",Week 4,−41.9%
same,"Percentage Change of IGA Scores From Baseline, Mean",Week 4,−28.8%
same,"Percentage Change of POEM Scores From Baseline, Mean",Week 4,−55.3%
same,"Percentage Change of SCORAD Levels From Baseline, Mean",Week 4,−34.8%
same,"Percentage Change of VAS Scores From Baseline, Mean",Week 4,−50.9%
same,"Percentage Change of BSA Levels From Baseline, Mean",Week 8,−41.0%
same,"Percentage Change of DLQI Scores From Baseline, Mean",Week 8,−57.5%
same,"Percentage Change of EASI Scores From Baseline, Mean",Week 8,−51.1%
same,"Percentage Change of IGA Scores From Baseline, Mean",Week 8,−42.6%
same,"Percentage Change of POEM Scores From Baseline, Mean",Week 8,−53.1%
same,"Percentage Change of SCORAD Levels From Baseline, Mean",Week 8,−44.3%
same,"Percentage Change of VAS Scores From Baseline, Mean",Week 8,−52.7%
same,"Percentage Change of BSA Levels From Baseline, Mean",Week 10,−49.7%
same,"Percentage Change of DLQI Scores From Baseline, Mean",Week 10,−61.6%
same,"Percentage Change of EASI Scores From Baseline, Mean",Week 10,−59.6%
same,"Percentage Change of IGA Scores From Baseline, Mean",Week 10,−46.2%
same,"Percentage Change of POEM Scores From Baseline, Mean",Week 10,−50.1%
same,"Percentage Change of SCORAD Levels From Baseline, Mean",Week 10,−47.1%
same,"Percentage Change of VAS Scores From Baseline, Mean",Week 10,−47.7%
same,effect in patients having normal eosinophil levels compared to placebo or the total study population,in vivo,greater effect; also recorded: higher response rate
same,change in BSA levels relative to baseline,[3],greater change
same,change in DLQI levels relative to baseline,[3],greater change
same,change in EASI scores relative to baseline,[3],greater change
same,change in IGA scores relative to baseline,[3],greater change
same,change in POEM scores relative to baseline,[3],greater change
same,change in SCORAD levels relative to baseline,[3],greater change
same,change in VAS scores relative to baseline,[3],greater change
same,IGA responder rate,patients having high eosinophil levels (greater than about 0.3×10^9/L),0%
same,EASI scoring: patients classified as responders,[4],51%
same,"IGA responders (IGA 0 or 1 at Week 8, 2-point decrease)",[4],42%
same,Pruritus scores (VAS): patients classified as responders,[4],53%
same,pruritus reduction,[4],53%
same,EASI (% decrease),[5],51%
same,IGA responders (%),[5],42%
same,Pruritus delta (as measured by VAS),[5],53%
same,Pruritus score decrease (as measured by VAS),[5],c. (2.0)
same,SCORAD (% decrease),[5],44%
